± gives the standard deviation of the averaged measurements.
How the values were obtained:
Assay in all cases: activity (1 - area under the dose-response curve within the screened range) (fraction); higher = more sensitive
Settings in all cases: treatment time: 72 h
HCM-SANG-0266-C20 = test system: HCM-SANG-0266-C20 (colorectal cancer organoid)
Method: (§1)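 Patient-derived cancer organoids (colorectal and oesophageal, HCM-SANG models) were grown for up to 6 months in 5% or 80% ECM (BME-2), then seeded in 384-well plates on an ECM layer and treated with 72 compounds for 3 days. Each compound used a 7-point half-log dilution series spanning a 1000-fold range, in technical triplicate and biological duplicate. Dose-response curves were fitted with a non-linear mixed effects model; fits with RMSE > 0.3 were removed, and activity = 1 - AUC within the screened dose range (0 = no activity, 1 = maximum).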

HCM-SANG-0270-C20 = test system: HCM-SANG-0270-C20 (colorectal cancer organoid)
Method: as §1

HCM-SANG-0291-C15 = test system: HCM-SANG-0291-C15 (oesophageal cancer organoid)
Method: as §1

HCM-SANG-0532-C20 = test system: HCM-SANG-0532-C20 (colorectal cancer organoid)
Method: as §1

[1] = ECM percentage in culture prior to screening 5 %
[2] = ECM percentage in culture prior to screening 80 %

Compound	activity (HCM-SANG-0266-C20; [1])	activity (HCM-SANG-0266-C20; [2])	activity (HCM-SANG-0270-C20; [1])	activity (HCM-SANG-0270-C20; [2])	activity (HCM-SANG-0291-C15; [1])	activity (HCM-SANG-0291-C15; [2])	activity (HCM-SANG-0532-C20; [1])	activity (HCM-SANG-0532-C20; [2])
O=c1[nH]cc(F)c(=O)[nH]1 [5-Fluorouracil]	0.137 ± 0.068	0.12 ± 0.061	0.123 ± 0.031	0.103 ± 0.075	0.0848 ± 0.043	0.063 ± 0.035	0.0766 ± 0.035	0.121 ± 0.044
CC(=O)O[C@H]1C(=O)[C@@]2(C)[C@H]([C@H](OC(=O)c3ccccc3)[C@]3(O)C[C@H](OC(=O)[C@H](O)[C@@H](NC(=O)c4ccccc4)c4ccccc4)C(C)=C1C3(C)C)[C@]1(OC(C)=O)CO[C@@H]1C[C@@H]2O [Paclitaxel]	0.331 ± 0.06	0.317 ± 0.067	0.223 ± 0.051	0.218 ± 0.084	0.246 ± 0.044	0.27 ± 0.066	0.138 ± 0.058	0.256 ± 0.031
O=c1cc(N2CCOCC2)oc2c(-c3cccc4c3sc3ccccc34)cccc12 [NU7441]	0.104 ± 0.032	0.063 ± 0.018	0.0446 ± 0.03	0.0686 ± 0.032	0.0932 ± 0.037	0.0809 ± 0.029	0.124 ± 0.045	0.119 ± 0.022
O=C(Nc1ccc2[nH]nc(-c3ccncc3)c2c1)[C@@H]1CCN(CC(=O)N2CCN(c3ccc(-c4ncccn4)cc3)CC2)C1	0.388 ± 0.086	0.155 ± 0.12	0.159 ± 0.078	0.0818 ± 0.065	0.236 ± 0.027	0.224 ± 0.055	0.201 ± 0.13	0.272 ± 0.056
Cn1c(=O)n(-c2ccc(C(C)(C)C#N)cc2)c2c3cc(-c4cnc5ccccc5c4)ccc3ncc21 [Dactolisib]	0.254 ± 0.077	0.239 ± 0.092	0.123 ± 0.039	0.0768 ± 0.059	0.101 ± 0.035	0.0783 ± 0.027	0.193 ± 0.058	0.257 ± 0.025
C[C@@H]1COCCN1c1cc(C2([S@](C)(=N)=O)CC2)nc(-c2cc[nH]c3nccc2-3)n1 [AZD6738]	0.185 ± 0.037	0.178 ± 0.033	0.09 ± 0.039	0.0864 ± 0.052	0.199 ± 0.027	0.211 ± 0.037	0.116 ± 0.065	0.108 ± 0.026
COc1ccc(C2=N[C@@H](c3ccc(Cl)cc3)[C@@H](c3ccc(Cl)cc3)N2C(=O)N2CCNC(=O)C2)c(OC(C)C)c1 [Nutlin-3a (-)]	0.218 ± 0.046	0.193 ± 0.064	0.161 ± 0.034	0.0722 ± 0.033	0.0424 ± 0.021	0.0359 ± 0.015	0.148 ± 0.039	0.203 ± 0.054
O=C(CCCCCCC(=O)Nc1ccccc1)NO [Vorinostat]	0.225 ± 0.032	0.172 ± 0.032	0.163 ± 0.017	0.153 ± 0.028	0.232 ± 0.021	0.222 ± 0.03	0.132 ± 0.022	0.211 ± 0.034
CN(C)C/C=C/C(=O)Nc1cc2c(Nc3ccc(F)c(Cl)c3)ncnc2cc1O[C@H]1CCOC1 [Afatinib]	0.308 ± 0.13	0.217 ± 0.11	0.311 ± 0.11	0.153 ± 0.13	0.414 ± 0.064	0.316 ± 0.06	0.171 ± 0.1	0.243 ± 0.07
CC/C(=C(\c1ccccc1)c1ccc(OCCN(C)C)cc1)c1ccccc1 [Tamoxifen]	0.0883 ± 0.053	0.0314 ± 0.011	0.0375 ± 0.013	0.0425 ± 0.025	0.0279 ± 0.013	0.0235 ± 0.0053	0.0364 ± 0.025	0.0524 ± 0.021
C[C@]1(O)C[C@@H](c2nc(-c3ccc4ccc(-c5ccccc5)nc4c3)c3c(N)nccn32)C1 [Linsitinib]	0.0577 ± 0.033	0.0295 ± 0.017	0.0341 ± 0.014	0.0245 ± 0.0092	0.0216 ± 0.0028	0.0248 ± 0.013	0.033 ± 0.015	0.0378 ± 0.015
COc1cc(Nc2ncc3c(n2)-c2ccc(Cl)cc2C(c2c(F)cccc2OC)=NC3)ccc1C(=O)O [Alisertib]	0.266 ± 0.08	0.31 ± 0.081	0.104 ± 0.078	0.124 ± 0.06	0.0593 ± 0.019	0.0714 ± 0.026	0.185 ± 0.063	0.148 ± 0.027
COc1ccc(-c2ccc3c(N4CCOC[C@@H]4C)nc(N4CCOC[C@@H]4C)nc3n2)cc1CO [AZD8055]	0.298 ± 0.097	0.251 ± 0.12	0.117 ± 0.043	0.0699 ± 0.062	0.076 ± 0.03	0.0634 ± 0.032	0.237 ± 0.076	0.301 ± 0.039
N.N.[Cl][Pt][Cl] [Cisplatin]	0.0675 ± 0.021	0.08 ± 0.081	0.0701 ± 0.024	0.0677 ± 0.021	0.132 ± 0.023	0.151 ± 0.025	0.0676 ± 0.035	0.0959 ± 0.02
COc1cc(CCc2cc(NC(=O)c3ccc(N4CC(C)NC(C)C4)cc3)n[nH]2)cc(OC)c1 (centres undefined) [AZD4547]	0.0268 ± 0.015	0.0233 ± 0.0077	0.0358 ± 0.023	0.0323 ± 0.017	0.0191 ± 0.001	0.0289 ± 0.014	0.0579 ± 0.039	0.0368 ± 0.013
O=C(O)C1(C(=O)O)CCC1.[NH2-].[NH2-].[Pt+2] [Carboplatin]	0.0268 ± 0.0076	0.0392 ± 0.024	0.0338 ± 0.02	0.0325 ± 0.013	0.0362 ± 0.017	0.0271 ± 0.011	0.0573 ± 0.015	0.0352 ± 0.013
CN1CCN(CCOc2cc(OC3CCOCC3)c3c(Nc4c(Cl)ccc5c4OCO5)ncnc3c2)CC1 [Saracatinib]	0.156 ± 0.038	0.126 ± 0.041	0.121 ± 0.071	0.0918 ± 0.067	0.159 ± 0.035	0.185 ± 0.024	0.155 ± 0.067	0.141 ± 0.028
CC1(C)CCC(c2ccc(Cl)cc2)=C(CN2CCN(c3ccc(C(=O)NS(=O)(=O)c4ccc(N[C@H](CCN5CCOCC5)CSc5ccccc5)c(S(=O)(=O)C(F)(F)F)c4)cc3)CC2)C1 [Navitoclax]	0.327 ± 0.03	0.358 ± 0.051	0.201 ± 0.033	0.188 ± 0.047	0.125 ± 0.032	0.121 ± 0.029	0.314 ± 0.045	0.288 ± 0.075
CCNC(=O)c1noc(-c2cc(C(C)C)c(O)cc2O)c1-c1ccc(CN2CCOCC2)cc1 [Luminespib]	0.319 ± 0.046	0.322 ± 0.024	0.111 ± 0.061	0.0622 ± 0.041	0.0294 ± 0.011	0.0466 ± 0.038	0.338 ± 0.087	0.291 ± 0.014
Cc1nc(-c2cn3c(n2)-c2ccc(-c4cnn(C(C)(C)C(N)=O)c4)cc2OCC3)n(C(C)C)n1 [Taselisib]	0.413 ± 0.13	0.263 ± 0.14	0.0832 ± 0.048	0.0597 ± 0.055	0.0465 ± 0.018	0.0601 ± 0.017	0.158 ± 0.12	0.249 ± 0.059
CN(C)C(=O)c1cc2cnc(Nc3ccc(N4CCNCC4)cn3)nc2n1C1CCCC1 [Ribociclib]	0.0335 ± 0.011	0.0512 ± 0.053	0.046 ± 0.028	0.0291 ± 0.019	0.0289 ± 0.0084	0.0323 ± 0.016	0.0436 ± 0.036	0.0301 ± 0.0069
O=C(O)C(=O)O.[NH-][C@@H]1CCCC[C@H]1[NH-].[Pt+2] [Oxaliplatin]	0.0673 ± 0.036	0.0486 ± 0.022	0.0594 ± 0.018	0.0493 ± 0.038	0.0391 ± 0.022	0.0459 ± 0.025	0.0448 ± 0.016	0.0692 ± 0.031
Cc1cccc(-c2[nH]c(C(C)(C)C)nc2-c2ccc3c(c2)OCO3)n1	0.0398 ± 0.022	0.0534 ± 0.016	0.0741 ± 0.023	0.0613 ± 0.046	0.0256 ± 0.0074	0.0336 ± 0.018	0.0437 ± 0.015	0.0531 ± 0.017

Source: the supplement of paper PMC8976852
